Assays:
Assay type in all cases: physicochemical
[1] = Excipient compatibility: rifaximin solutions stored at various temperatures, chemical purity by HPLC; conditions: rifaximin in named solvent
[2] = Compatibility of individual excipients with hard gelatin capsule shells; conditions: Hard Gel Capsules
Protocol: (§1) The physical compatibility of individual excipients with gelatin shell matrix was investigated. For hard gelatin capsules, solvent was filled into hard capsules and placed in scintillation vials. For soft gelatin capsules, each capsule was dipped into the excipient and then placed in scintillation vials. The vials were then subjected to various temperature conditions for up to 4 weeks. Capsules were then evaluated for physical changes (softening or hardening of capsule shell).
(§2) Hard gel capsules were purchased from VWR (catalogue number 70102) with a volume of 0.68 mL, diameter of 6.63 mm, a length of 19.0 mm and size 1. Soft gel capsules were Advil liquid-gels, 200 mg strength, 80 counts.

[3] = Compatibility of individual excipients with soft gelatin capsule shells; conditions: Soft Gel Capsules
Protocol: as §1, §2

SMILES	Rifaximin % Label Claim (LC) ([1]; T0)	Rifaximin % Label Claim (LC) ([1]; T 2 weeks, 25° C.)	Rifaximin % Label Claim (LC) ([1]; T 2 weeks, 40° C.)	Rifaximin % Label Claim (LC) ([1]; T 2 weeks, 50° C.)	Rifaximin % Label Claim (LC) ([1]; T 4 weeks, 25° C.)	Rifaximin % Label Claim (LC) ([1]; T 4 weeks, 40° C.)	Rifaximin % Label Claim (LC) ([1]; T 4 weeks, 50° C.)	Physical change (Yes or No) ([2]; T 2 weeks, 25° C.)	Physical change (Yes or No) ([2]; T 2 weeks, 40° C.)	Physical change (Yes or No) ([2]; T 4 weeks, 25° C.)	Physical change (Yes or No) ([2]; T 4 weeks, 40° C.)	Physical change (Yes or No) ([2]; T 2 weeks, 50° C.)	Physical change (Yes or No) ([2]; T 4 weeks, 50° C.)	Physical change (Yes or No) ([3]; T 2 weeks, 25° C.)	Physical change (Yes or No) ([3]; T 2 weeks, 40° C.)	Physical change (Yes or No) ([3]; T 2 weeks, 50° C.)	Physical change (Yes or No) ([3]; T 4 weeks, 25° C.)	Physical change (Yes or No) ([3]; T 4 weeks, 40° C.)	Physical change (Yes or No) ([3]; T 4 weeks, 50° C.)
OCc1ccccc1 [Benzyl alcohol]	99.3 % Label Claim (LC)	99.8 % Label Claim (LC)	96.3 % Label Claim (LC)	96.9 % Label Claim (LC)	98.2 % Label Claim (LC)	94.0 % Label Claim (LC)	93.0 % Label Claim (LC)	Yes	Yes	Yes	Yes								
CCOC(=O)CCCCCCCCC(=O)OCC [Diethyl sebacate]	102.7 % Label Claim (LC)	102.1 % Label Claim (LC)	101.7 % Label Claim (LC)	101.7 % Label Claim (LC)	101.1 % Label Claim (LC)	98.8 % Label Claim (LC)	99.8 % Label Claim (LC)	No	No	No	No								
CCOCCOCCO [Diethylene glycol monoethyl ether]								No	No	No	No	No	No						
CCCCCCCC/C=C\CCCCCCCC(=O)OCC(O)CO (stereo not shown) [Glyceryl monooleate (Type 40), Glyceryl monooleate]	92.7 % Label Claim (LC)	96.4 % Label Claim (LC)	58.3 % Label Claim (LC)	48.9 % Label Claim (LC)	95.0 % Label Claim (LC)	59.0 % Label Claim (LC)	41.7 % Label Claim (LC)	No	No	No	No	No	No	No	Yes	Yes	No	Yes	Yes

Now from value to compound, other results behind:

Rifaximin % Label Claim (LC) ([1]; T0)	Rifaximin % Label Claim (LC) ([1]; T 2 weeks, 25° C.)	Rifaximin % Label Claim (LC) ([1]; T 2 weeks, 40° C.)	Rifaximin % Label Claim (LC) ([1]; T 2 weeks, 50° C.)	Rifaximin % Label Claim (LC) ([1]; T 4 weeks, 25° C.)	Rifaximin % Label Claim (LC) ([1]; T 4 weeks, 40° C.)	Rifaximin % Label Claim (LC) ([1]; T 4 weeks, 50° C.)	Physical change (Yes or No) ([2]; T 2 weeks, 25° C.)	Physical change (Yes or No) ([2]; T 2 weeks, 40° C.)	Physical change (Yes or No) ([2]; T 4 weeks, 25° C.)	Physical change (Yes or No) ([2]; T 4 weeks, 40° C.)	Physical change (Yes or No) ([2]; T 2 weeks, 50° C.)	Physical change (Yes or No) ([2]; T 4 weeks, 50° C.)	SMILES	Physical change (Yes or No) ([3]; T 2 weeks, 25° C.)	Physical change (Yes or No) ([3]; T 2 weeks, 40° C.)	Physical change (Yes or No) ([3]; T 2 weeks, 50° C.)	Physical change (Yes or No) ([3]; T 4 weeks, 25° C.)	Physical change (Yes or No) ([3]; T 4 weeks, 40° C.)	Physical change (Yes or No) ([3]; T 4 weeks, 50° C.)
97.6 % Label Claim (LC)	95.3 % Label Claim (LC)	71.3 % Label Claim (LC)	50.3 % Label Claim (LC)	95.1 % Label Claim (LC)	64.8 % Label Claim (LC)	30.4 % Label Claim (LC)							CC(C)OC(=O)CCCCC(=O)OC(C)C [Diisopropyl adipate]						
102.7 % Label Claim (LC)	98.7 % Label Claim (LC)	100.0 % Label Claim (LC)	97.4 % Label Claim (LC)	100.6 % Label Claim (LC)	100.0 % Label Claim (LC)	92.9 % Label Claim (LC)	No	No	No	No	No	No	CCCCC/C=C\C/C=C\CCCCCCCC(=O)OCC(O)CO (stereo not shown) [Glyceryl monolinoleate]	No	No	No	No	No	No
98.7 % Label Claim (LC)	96.3 % Label Claim (LC)	97.1 % Label Claim (LC)	95.2 % Label Claim (LC)	96.9 % Label Claim (LC)	95.0 % Label Claim (LC)	91.8 % Label Claim (LC)	No	No	No	No			CCCCCCCC/C=C\CCCCCCCCO [Oleyl alcohol]						
97.9 % Label Claim (LC)	96.9 % Label Claim (LC)	97.0 % Label Claim (LC)	95.7 % Label Claim (LC)	96.2 % Label Claim (LC)	95.6 % Label Claim (LC)	98.6 % Label Claim (LC)							CC(O)CO (stereo not shown) [Propylene glycol]						
97.5 % Label Claim (LC)	98.3 % Label Claim (LC)	96.7 % Label Claim (LC)	95.6 % Label Claim (LC)	97.0 % Label Claim (LC)	95.0 % Label Claim (LC)	92.5 % Label Claim (LC)	Yes	Yes	Yes	Yes			OCCOCCOCCO [Triethylene glycol]						
97.3 % Label Claim (LC)	96.1 % Label Claim (LC)	89.3 % Label Claim (LC)	81.5 % Label Claim (LC)	95.4 % Label Claim (LC)	82.7 % Label Claim (LC)	74.2 % Label Claim (LC)							CCOCCOCCO [diethylene glycol monoethyl ether]						

— patent US20230398102A1 (Bausch Health Ireland Limited, priority 2020, published 2023)
